Results reported in patent US12269800B2, “Delivery of therapeutic alkaloid compounds” (priority 2021, dated 2025).
Like-named read-outs stand apart in the source and are kept apart here.

Experiments:
[1] = 5 µM
[2] = 5 µM; remark: listed apart in the source
Procedure: 50 uL aliquots of positive controls and test compounds spiked into rat or human plasma (n=2) were added to a pre-warmed plate (37° C.) and shaken at 50 rpm. At each respective time point, the reaction was stopped by adding 500 μL of acetonitrile containing internal standards (100 nM aprozolam, 200 nM caffeine, 100 nM tolbutamide). All samples were vortexed for 10 minutes, followed by centrifugation at 3,220 g for 30 minutes to precipitate proteins. 100 μL of the supernatant is transferred to a new plate. The supernatant will be diluted with ultrapure water according to the LC-MS signal response and peak shape.

Row | Structure (SMILES) | Human Plasma Prodrug (%) ([1]; 0 min) | Human Plasma Prodrug (%) ([1]; 10 min) | Human Plasma Prodrug (%) ([1]; 30 min) | Human Plasma Prodrug (%) ([1]; 60 min) | Human Plasma Prodrug (%) ([1]; 120 min) | Human Plasma Prodrug (%) ([1]; 240 min) | Rat Plasma Prodrug (%) ([2]; 0 min) | Rat Plasma Prodrug (%) ([2]; 10 min) | Rat Plasma Prodrug (%) ([2]; 30 min) | Rat Plasma Prodrug (%) ([2]; 60 min) | Rat Plasma Prodrug (%) ([2]; 120 min) | Rat Plasma Prodrug (%) ([2]; 240 min)
1 | CCCCCC(C)C(=O)OC1=C[C@@H]2N(C)CC[C@]2(c2ccc(OC)c(OC)c2)CC1 (stereo partly drawn) [Compound 400, (3aS,7aS)-3a-(3,4-dimethoxyphenyl)-1-methyl-2,3,3a,4,5,7a-hexahydro-1H-indol-6-yl 2-methylheptanoate] | 100.0 | 34.7 | 11.6 | 5.2 | 2.3 | 1.9 | 100.0 | 12.6 | 0.6 | 0.1 | 0.1 | 0.0
2 | CCCCC(CC)C(=O)OC1=C[C@@H]2N(C)CC[C@]2(c2ccc(OC)c(OC)c2)CC1 (stereo partly drawn) [Compound 401, (3aS,7aS)-3a-(3,4-dimethoxyphenyl)-1-methyl-2,3,3a,4,5,7a-hexahydro-1H-indol-6-yl 2-ethylhexanoate] | 100.0 | 95.9 | >99 | 96.6 | 94.4 | 93.4 | 100.0 | 84.5 | 55.8 | 33.8 | 16.3 | 3.3
3 | CCCC(C)C(=O)OC1=C[C@@H]2N(C)CC[C@]2(c2ccc(OC)c(OC)c2)CC1 (stereo partly drawn) [Compound 402, (3aS,7aS)-3a-(3,4-dimethoxyphenyl)-1-methyl-2,3,3a,4,5,7a-hexahydro-1H-indol-6-yl 2-methylpentanoate] | 100.0 | 11.3 | 2.9 | 2.1 | 1.6 | 1.1 | 100.0 | 3.5 | 0.1 | 0.0 | 0.0 | 0.0
4 | COCCCCC(=O)OC1=C[C@@H]2N(C)CC[C@]2(c2ccc(OC)c(OC)c2)CC1 [Compound 404, (3aS,7aS)-3a-(3,4-dimethoxyphenyl)-1-methyl-2,3,3a,4,5,7a-hexahydro-1H-indol-6-yl 5-methoxypentanoate] | 100.0 | 22.9 | 11.5 | 7.6 | 3.8 | 1.6 | 100.0 | 0.3 | 0.3 | 0.3 | 0.3 | 0.2
5 | COCCOCCC(=O)OC1=C[C@@H]2N(C)CC[C@]2(c2ccc(OC)c(OC)c2)CC1 [Compound 405, (3aS,7aS)-3a-(3,4-dimethoxyphenyl)-1-methyl-2,3,3a,4,5,7a-hexahydro-1H-indol-6-yl 3-(2-methoxyethoxy)propanoate] | 100.0 | >99 | 95.0 | 87.0 | 65.7 | 46.7 | 100.0 | 0.1 | 0.0 | 0.1 | 0.0 | 0.0
6 | CCC(C)C(=O)OC1=C[C@@H]2N(C)CC[C@]2(c2ccc(OC)c(OC)c2)CC1 (stereo partly drawn) [Compound 425, (3aS,7aS)-3a-(3,4-dimethoxyphenyl)-1-methyl-2,3,3a,4,5,7a-hexahydro-1H-indol-6-yl 2-methylbutanoate] | 100.0 | 6.5 | 4.8 | 4.0 | 3.0 | 1.9 | 100.0 | 4.4 | 0.1 | 0.0 | 0.0 | 0.0
7 | CCC(CC)C(=O)OC1=C[C@@H]2N(C)CC[C@]2(c2ccc(OC)c(OC)c2)CC1 [Compound 426, (3aS,7aS)-3a-(3,4-dimethoxyphenyl)-1-methyl-2,3,3a,4,5,7a-hexahydro-1H-indol-6-yl 2-ethylbutanoate] | 100.0 | 87.1 | 80.3 | 79.2 | 73.6 | 66.4 | 100.0 | 70.2 | 33.2 | 9.5 | 0.9 | 0.1
8 | CCCC(CCC)C(=O)OC1=C[C@@H]2N(C)CC[C@]2(c2ccc(OC)c(OC)c2)CC1 [Compound 427, (3aS,7aS)-3a-(3,4-dimethoxyphenyl)-1-methyl-2,3,3a,4,5,7a-hexahydro-1H-indol-6-yl 2-propylpentanoate] | 100.0 | >99 | 96.6 | 96.9 | 95.5 | 91.2 | 100.0 | 93.6 | 73.4 | 43.9 | 16.0 | 2.3
9 | CCC(C)(C)C(=O)OC1=C[C@@H]2N(C)CC[C@]2(c2ccc(OC)c(OC)c2)CC1 [Compound 428, (3aS,7aS)-3a-(3,4-dimethoxyphenyl)-1-methyl-2,3,3a,4,5,7a-hexahydro-1H-indol-6-yl 2,2-dimethylbutanoate] | 100.0 | 82.9 | 74.5 | 69.1 | 56.8 | 46.0 | 100.0 | 90.3 | 69.9 | 41.7 | 18.1 | 3.9
10 | CCCC(C)(C)C(=O)OC1=C[C@@H]2N(C)CC[C@]2(c2ccc(OC)c(OC)c2)CC1 [Compound 429, (3aS,7aS)-3a-(3,4-dimethoxyphenyl)-1-methyl-2,3,3a,4,5,7a-hexahydro-1H-indol-6-yl 2,2-dimethylpentanoate] | 100.0 | >99 | 96.3 | 95.3 | 91.8 | 84.6 | 100.0 | 90.4 | 83.9 | 71.9 | 50.8 | 26.2
11 | CCC(C)(CC)C(=O)OC1=C[C@@H]2N(C)CC[C@]2(c2ccc(OC)c(OC)c2)CC1 [Compound 430, (3aS,7aS)-3a-(3,4-dimethoxyphenyl)-1-methyl-2,3,3a,4,5,7a-hexahydro-1H-indol-6-yl 2-ethyl-2-methylbutanoate] | 100.0 | >99 | >99 | >99 | >99 | 95.9 | 100.0 | 98.2 | 98.3 | 97.1 | 94.1 | 92.8
